In patent US10570179B2, “Substituted urea depsipeptide analogs as activators of the CLPP endopeptidase” (priority 2016, dated 2020):
In brackets after ≈: the same amount, converted by molar mass. Where two headings read alike, the source gives them in different places. Numbered stars: 1 amine (or outer) side, 2 acyl side, 3 side chain; on linkers, the order of the positions; unused ones are H or OH. Bridge positions count the residues as written; N and C are the ends. Square brackets hold non-standard residues; d marks the D form. Peptide text beside a SMILES is read from it. * marks the point of attachment. Phe(3-CF3) = N[C@@H](Cc1cccc(C(F)(F)F)c1)C(=O)O; Piperazine(2S-CO,4-Me) = CN1CCN[C@H](C(=O)O)C1; NH(1,3-benzodioxol-5-yl) = c1cc2c(cc1N*)OCO2; Phe(3-OMe) = COc1cccc(C[C@H](N)C(=O)O)c1; Phe(3-Me) = Cc1cccc(C[C@H](N)C(=O)O)c1; X4 = O=C1CN([*:1])[C@H](C(=O)[*:2])CN1; NH(4-Cl-2-F-phenyl) = Fc1cc(Cl)ccc1N*; Pro(4R-Me) = C[C@H]1CN[C@H](C(=O)O)C1; NH(4-Et-phenyl) = CCc1ccc(N*)cc1; NH(4-Me-phenyl) = Cc1ccc(N*)cc1; aThr = C[C@H](O)[C@H](N)C(=O)O; CO = O=C([*:1])[*:2]

Key:
[1] = Plasma protein binding, rapid equilibrium dialysis; type: in vitro ADME, human; conditions: 10 μM
Experimental: This assay determines plasma protein binding of a drug/compound and free drug concentration in plasma using rapid equilibrium dialysis, which allow the aqueous component of plasma containing the free drug/compound through a dialysis membrane (MWCO˜8,000).
Solutions were prepared at 10 mM in DMSO. Dulbecco's phosphate buffered saline (DPBS; pH 7.4) was obtained from Invitrogen (Carlsbad, Calif.). Single-Use RED (rapid equilibrium dialysis) device was obtained from Thermo scientific (Rockford, Ill.). Human plasma was obtained from Innovative Research INC (Novi, Michigan, Ill).
Sample preparation for plasma protein binding was modified from Waters' method. (Waters et al. (2008) J. Pharm. Sci. 97(10): 4586-95). The Teflon base plate with the RED inserts (MWCO 8 K) were allowed to use without any pre-condition the membrane inserts. Human plasma was thawed and centrifuged at 1000 rpm for 2 min to remove any particulates. Each compound was prepared at 10 μM in human plasma. This was done by adding 1 μL, of drug solution (10 mM in DMSO) to 1000 μL, of human plasma (0.1% DMSO). Spiked plasma solutions (300 μL) were placed into the sample chamber (indicated by the red ring) and 500 μL, of DPBS into the adjacent chamber. The plate was sealed and incubated at 37° C. on an orbital shaker (100 rpm) for 4 hours. After incubation, the seal was removed from the RED plate and the volume of the insert confirmed—little to no volume change occurred. Aliquots (50 μL) were removed from each side of the insert and dispensed into a 96-well deep plate. An equal volume of blank plasma or DPBS was added to the required wells to create analytically identical sample matrices (matrix matching). To each sample 200 μL, of ACN containing 4 μg/mL warfarin IS was added. All of the plates were sealed and mixed well at 600 rpm for 10 min and were centrifuged at 4000 rpm for 20 min. The supernatants (120 μL) were transferred to analytical plates for analysis by LCMS. Conditions for Waters ACQUITY-UPLC-MS-UV system were described separately. The test compound concentrations were quantified in both buffer and plasma chambers via peak areas relative to the internal standard. The percentage of the test compound bound to plasma was calculated on following equations: % Free=(Concentration buffer chamber/concentration plasma chamber)×100% and % Bound=100%-% Free.

Solubility determination = type: physicochemical; conditions: for solubility kinetic at 10 min: 22 °C, aqueous buffer, kinetic from dmso stock
Experimental: Test compounds were synthesized and supplied by the Department of Chemical Biology and Therapeutics at St. Jude Children's Research Hospital (Memphis, Tenn.). LC-MS chromasolv grade acetonitrile (ACN) was purchased from Fisher Scientific (Loughborough, UK). LC-MS chromasolv grade formic acid was obtained from Sigma-Aldrich (St. Louis, Mo.). Milli-Q water as an ultrapure laboratory grade water was used in aqueous mobile phase.
Chromatographic separation was performed on an Acquity UPLC BEH C18 1.7 μm, 2.1×50 mm column (Waters Corporation, Milford, Mass.) using an Acquity ultra performance liquid chromatography system. The total flow rate was 0.9 mL/min. The sample injection volume was 10 μL. The UPLC column was maintained at 60° C. and the gradient program started at 90% A (0.1% formic acid in MilliQ H2O), changed to 70% A over 0.2 min, to 95% B (0.1% formic acid in ACN) over 1.4 minutes, held for 0.35 minutes, then to 90% A over 0.05 minutes.
Mass data was acquired with an Acquity SQD Mass Spectrometer. The mass spectrometer was operated in positive-ion mode with electrospray ionization. The conditions were as follows: capillary voltage 3.5 kV, cone voltage 30 V, source temperature 150° C., desolvation temperature 350° C., desolvation gas 500 L/hr, cone gas 25 L/hr. Data were acquired using Masslynx v. 4.1 and analyzed using the Quanlynx software suite. A full scan range from m/z=100-1000 in 0.2 s was used to acquire MS data. Both UV and Single ion recording mass spectrometry were used to determine the quantification of the samples.
Stock solutions were prepared by dissolving compounds into DMSO to yield a concentration of 10 mM. Stock solutions were stored at room temperature.
Calibration standards were made by adding stock solutions to DMSO for final concentrations of compounds at concentration of 100, 25, 6.25, 1.563, 0.391 and 0.098 μM.
Solubility test samples were made by adding stock solutions to 200 μL, of DPBS for final concentrations of compounds at 100 μM in a 96-well analytical plate (300 μL, maximum volume in each well). Samples were tested in triplicates. The plate was sealed, shaken at 600 rpm for 10 minutes, and then was centrifuged at 4000 rpm for 20 min at 22° C. 100 μL, of the supernatant was transferred to a new analytical 96-well plate and 10 μL, was injected onto the LCMS system.
Two calibration curves for solubility test samples were analyzed during the quantitation process. The linear regression of test compound peak areas was weighted by 1/x^2. […] Coefficient of determination (R^2) was used to evaluate the linearity of each calibration curve.

[2] = Microsomal metabolic stability; type: in vitro ADME, human
Experimental: Compounds were initially prepared by dissolving them into DMSO at a final concentration of 10 mM. NADPH regenerating solutions A and B and mouse liver microsomes (CD-1) were obtained from BD Gentest (Woburn, Mass.). Ninety-six well deep well plates were obtained from MidWest Scientific Inc (Valley Park, Mo.).
Sample preparation for microsomal stability was modified from methods of Di, L., et al., Int J Pharm. 2005 Jun. 13; 297(1-2):110-9. A set of incubation times of 0, 15, 30, 60, 120, and 240 minutes were used. Mouse liver microsomal solutions were prepared by adding 58 μL of concentrated human or mouse liver microsomes (20 mg/mL protein concentration) to 1.756 mL of 0.1 M potassium phosphate buffer (pH 7.4) and 5 μL of 0.5 M EDTA to make a 0.6381 mg/mL (protein) microsomal solution. NADPH regenerating agent contained 113 μL of NADPH A, 23 μL of NADPH B, and 315 μL of 0.1 M potassium phosphate buffer (pH 7.4). The diluted test compound solutions (2 μL) were each added directly to a 1.79 mL of liver microsomal solution. This solution was mixed and 90 μL was transferred to 6 time points plates (each in triplicate wells). For the time 0 plate, 225 μL of cold acetonitrile with internal standard ([…] warfarin) was added to each well, followed by addition of NADPH regenerating agent (22.5 μL) and no incubation. For other five time points' plate, NADPH regenerating agent (22.5 μL) was added to each well to initiate the reaction. The plates were incubated at 37° C. for the required time, followed by quenching of the reaction by adding 225 μL of cold acetonitrile with internal standard (4 μg/ml warfarin). All of the plates were sealed and mixed well at 600 rpm for 10 minutes followed by centrifugation at 4000 rpm for 20 minutes. The supernatants (120 μL) were transferred to analytical plates for analysis by LCMS. LCMS conditions were described in the materials and instrumentation section above. The metabolic stability is evaluated via the half-life from least-squares fit of the multiple time points based on first-order kinetics.

SMILES | Human ([1]; plasma binding, % Bound, human plasma) [%] | solubility kinetic at 10 min (Solubility determination; solubility in DPBS, 100 μM test samples, LCMS, read-out: LCMS) [µM] | μsol (μM) (Solubility determination; solubility) [µM] | Human ([2]; microsomal metabolic stability half-life, human liver microsomes) [h] | Human ([1]; human, 4 h, pH 7.4) [%] | μsol (μM) (Solubility determination) [µM] | solubility kinetic at 10 min (Solubility determination) [µM] | Human ([2]; human, pH 7.4) [h]
Cc1ccc(NC(=O)N[C@@H](Cc2cccc(C)c2)C(=O)N[C@H]2COC(=O)[C@@H]3C[C@@H](C)CN3C(=O)[C@H](C)NC(=O)[C@@H]3CN(C)CCN3C(=O)[C@@H]3CCCN3C2=O)cc1 [Compound 15, (S)-3-(M-TOLYL)-2-(3-(P-TOLYL)UREIDO)-N-((6AS,12S,15AS,17R,21S,23AS)-2,17,21-TRIMETHYL-6,11,15,20,23-PENTAOXOOCTADECAHYDRO-2H,6H,11H,15H-PYRAZINO[2,1-I]DIPYRROLO[2,1-C:2′,1′-L][1]OXA[4,7,10,13]TETRAAZACYCLOHEXADECIN-12-YL)PROPANAMIDE] ({NH(4-Me-phenyl)-CO}-[Phe(3-Me)]SP[Piperazine(2S-CO,4-Me)]A[Pro(4R-Me)]; ester 2-C) | 95.2 ± 1.5 | 57.2 ± 1.1 (≈ 45 µg/mL) | 25.1 ± 1.7 | 0.67 ± 0.04 |  |  |  | 
CCc1ccc(NC(=O)N[C@@H](Cc2cccc(C)c2)C(=O)N[C@H]2COC(=O)[C@@H]3C[C@@H](C)CN3C(=O)[C@H](C)NC(=O)[C@@H]3CN(C)CCN3C(=O)[C@@H]3CCCN3C2=O)cc1 [Compound 16, (S)-2-(3-(4-ETHYLPHENYL)UREIDO)-3-(M-TOLYL)-N-((6AS,12S,15AS,17R,21S,23AS)-2,17,21-TRIMETHYL-6,11,15,20,23-PENTAOXOOCTADECAHYDRO-2H,6H,11H,15H-PYRAZINO[2,1-I]DIPYRROLO[2,1-C:2′,1′-L][1]OXA[4,7,10,13]TETRAAZACYCLOHEXADECIN-12-YL)PROPANAMIDE] ({NH(4-Et-phenyl)-CO}-[Phe(3-Me)]SP[Piperazine(2S-CO,4-Me)]A[Pro(4R-Me)]; ester 2-C) |  |  |  |  | 98.5 ± 0.3 | 47.4 ± 5.7 | 53.2 ± 6.5 (≈ 42.6 µg/mL) | 0.86 ± 0.07
Cc1cccc(C[C@H](NC(=O)Nc2ccc3c(c2)OCO3)C(=O)N[C@H]2COC(=O)[C@@H]3C[C@@H](C)CN3C(=O)[C@H](C)NC(=O)[C@@H]3CN(C)CCN3C(=O)[C@@H]3CCCN3C2=O)c1 [Compound 17, (S)-2-(3-(BENZO[D][1,3]DIOXOL-5-YL)UREIDO)-3-(M-TOLYL)-N-((6AS,12S,15AS,17R,21S,23AS)-2,17,21-TRIMETHYL-6,11,15,20,23-PENTAOXOOCTADECAHYDRO-2H,6H,11H,15H-PYRAZINO[2,1-I]DIPYRROLO[2,1-C:2′,1′-L][1]OXA[4,7,10,13]TETRAAZACYCLOHEXADECIN-12-YL)PROPANAMIDE] ({NH(1,3-benzodioxol-5-yl)-CO}-[Phe(3-Me)]SP[Piperazine(2S-CO,4-Me)]A[Pro(4R-Me)]; ester 2-C) |  |  |  |  | 95.4 ± 1.1 | 71.1 ± 0.7 | 64.6 ± 2 (≈ 52.8 µg/mL) | 1.58 ± 0.25
C[C@@H]1C[C@H]2C(=O)OC[C@H](NC(=O)[C@H](Cc3cccc(C(F)(F)F)c3)NC(=O)Nc3ccc(Cl)cc3F)C(=O)N3CCC[C@H]3C(=O)N3CCN(C)C[C@H]3C(=O)N[C@@H](C)C(=O)N2C1 [Compound 18, (S)-2-(3-(4-CHLORO-2-FLUOROPHENYL)UREIDO)-3-(3-(TRIFLUOROMETHYL)PHENYL)-N-((6AS,12S,15AS,17R,21S,23AS)-2,17,21-TRIMETHYL-6,11,15,20,23-PENTAOXOOCTADECAHYDRO-2H,6H,11H,15H-PYRAZINO[2,1-I]DIPYRROLO[2,1-C:2′,1′-L][1]OXA[4,7,10,13]TETRAAZACYCLOHEXADECIN-12-YL)PROPANAMIDE] ({NH(4-Cl-2-F-phenyl)-CO}-[Phe(3-CF3)]SP[Piperazine(2S-CO,4-Me)]A[Pro(4R-Me)]; ester 2-C) |  |  |  |  | 99.0 ± 0.1 | 22.7 ± 0.8 | 22.6 ± 2.1 (≈ 19.9 µg/mL) | 0.75 ± 0.11
COc1cccc(C[C@H](NC(=O)Nc2ccc(Cl)cc2F)C(=O)N[C@H]2COC(=O)[C@@H]3C[C@@H](C)CN3C(=O)[C@H](C)NC(=O)[C@@H]3CN(C)CCN3C(=O)[C@@H]3CCCN3C2=O)c1 [Compound 19, (S)-2-(3-(4-CHLORO-2-FLUOROPHENYL)UREIDO)-3-(3-METHOXYPHENYL)-N-((6AS,12S,15AS,17R,21S,23AS)-2,17,21-TRIMETHYL-6,11,15,20,23-PENTAOXOOCTADECAHYDRO-2H,6H,11H,15H-PYRAZINO[2,1-I]DIPYRROLO[2,1-C:2′,1′-L][1]OXA[4,7,10,13]TETRAAZACYCLOHEXADECIN-12-YL)PROPANAMIDE] ({NH(4-Cl-2-F-phenyl)-CO}-[Phe(3-OMe)]SP[Piperazine(2S-CO,4-Me)]A[Pro(4R-Me)]; ester 2-C) |  |  |  |  | 98.9 ± 0.2 | 51.5 ± 1.1 | 55.9 ± 2.9 (≈ 47 µg/mL) | 0.61 ± 0.06
Cc1cccc(C[C@H](NC(=O)Nc2ccc(Cl)cc2F)C(=O)N[C@@H]2C(=O)N3CCC[C@H]3C(=O)N3CC(=O)NC[C@H]3C(=O)N[C@@H](C)C(=O)N3C[C@H](C)C[C@H]3C(=O)O[C@H]2C)c1 [Compound 20, (S)-2-(3-(4-CHLORO-2-FLUOROPHENYL)UREIDO)-3-(M-TOLYL)-N-((6AS,12S,13S,15AS,17R,21S,23AS)-13,17,21-TRIMETHYL-3,6,11,15,20,23-HEXAOXOOCTADECAHYDRO-2H,6H,11H,15H-PYRAZINO[2,1-I]DIPYRROLO[2,1-C:2′,1′-L][1]OXA[4,7,10,13]TETRAAZACYCLOHEXADECIN-12-YL)PROPANAMIDE] ({NH(4-Cl-2-F-phenyl)-CO}-[Phe(3-Me)][aThr]P[X4]A[Pro(4R-Me)]; ester 2-C) |  |  |  |  | 97.5 ± 0.2 | 29.9 ± 1.5 | 34.4 ± 1.1 (≈ 28.9 µg/mL) | 1.30 ± 0.09
